Measured values taken from patent US4136179A, “2,2-Dimethyl-19-nor-steroids” (Roussel Uclaf, priority 1976, dated 1979).

System: aldosterone monoacetate
Assay: Anti-aldosterone activity in surrenalectomized rats (urinary sodium/potassium)
Assay type: in vivo, rat (male, Sprague-Dawley)
Settings: for % inhibition of the activity of 1 μg/kg of aldosterone monoacetate: surrenalectomized male Sprague-Dawley rats, aldosterone 1 μg/kg s.c., 4 hours urine, sodium and potassium; for antialdosterone activity (in words): orally administered
Method: Male rats of the Sprague-Dawley strain weighing about 180 g were surrenalectomized and at that moment, the rats received with their drinking water physiological serum. On the 4th day, the animals were fasted for 16 hours and then received as drinking water water containing 5% glucose. The test product was administered orally at the end of 16 hours in the form of a suspension in 0.25% carboxymethylcellulose. One hour after the administration of the product, they received intraperitoneally a surcharge of aqueous sodium chloride at a rate of 5 ml per 100 g of body weight of […] physiological serum and subcutaneously 1 μg/kg of an alcoholic solution of 2.5% of aldosterone acetate. The animals were placed in diuresis cages without food or drink for 4 hours. At the end of this time, a miction was forced by pressure on the bladder and the volume of urine was adjusted to 50 ml and the amount of sodium and potassium was determined with an autoanalyser. The results expressed as the percentage of inhibition of the activity of 1 μg/kg of aldosterone monoacetate injected subcutaneously with the ratio of [formula] in the surrenalectomized rats is reported in the following Table.

| Compound | % inhibition of the activity of 1 μg/kg of aldosterone monoacetate (oral dose 10 mg/kg) | antialdosterone activity (in words) | % inhibition of the activity of 1 μg/kg of aldosterone monoacetate (oral dose 5 mg/kg) |
| --- | --- | --- | --- |
| CC1(C)CC2=C3C=CC4(C)C(C(=O)CO)CCC4C3CCC2=CC1=O (stereo not shown) [Example 9, 2,2-dimethyl-19-nor-Δ^4,9,11-pregnatriene-21-ol-3,20-dione] | 91% | interesting antialdosterone activity | – |
| CC1(C)CC2C(=CC1=O)CCC1C2CCC2(C)C(C(=O)CO)CCC12 (stereo not shown) [Example 3, 2,2-dimethyl-19-nor-Δ^4-pregnene-21-ol-3,20-dione] | – | interesting antialdosterone activity | 50% |
